Values quoted from earlier work in US20030216407A1, “Use of PDE5 inhibitors in the treatment of scarring” (Pfizer Inc., priority 2002, published 2003).

What was measured:
[1] = tested on: normal rat kidney fibroblast collagen synthesis; details: in vitro
PDE6 against PDE5 = details: more potent against PDE6 than against PDE5
[2] = tested on: adult cardiac fibroblasts; details: substance on its own

In the case of `Nc1nc2c(ncn2[C@@H]2O[C@@H]3COP(=O)(O)O[C@H]3[C@H]2O)c(=O)[nH]1` [cGMP], the “collagen synthesis induced by CTGF” value [1] is listed as “no effect”.
In the case of `CCCOc1ccccc1-c1nc2nn[nH]c2c(=O)[nH]1` [zaprinast], the “potency against PDE6 relative to PDE5” value (PDE6 against PDE5) is listed as “five fold” and the “regulating cardiac fibroblast proliferation” value [2] is listed as “no effect”.
In the case of atrial natriurectic peptide [ANP], the “regulating cardiac fibroblast proliferation” value [2] is listed as “did not on its own regulate”.
